Experimental data taken from US20250049036A1 (priority 2021, published 2025).

How the values were obtained:
Pyricularia oryzae = experiment: microbe, parasite or virus in culture; type: cell-based; details: 168 h, read-out: control compared to the untreated check
Colletotrichum capsici = Colletotrichum capsici (anthracnose) mycelial radial growth on potato dextrose agar; type: cell-based; details: Colletotrichum truncatum, 168 h, 25° C., seven days, read-out: control compared to the untreated check
Protocol: The compounds were dissolved in 0.3% dimethyl sulfoxide and then added to potato dextrose agar medium just prior to dispensing it into petri dishes. 5 mL medium, with the compound in the desired concentration, was dispensed into 60 mm sterile petri-plates. After solidification, each plate was seeded with a 5 mm size mycelial disc taken from the periphery of an actively growing virulent culture plate. The plates were incubated in growth chambers at 25° C. temperature and 60% relative humidity for seven days and the radial growth was measured and compared to the one of the untreated control.

Parastagonospora nodorum = Parastagonospora nodorum (PARANO) spore growth inhibition in liquid medium, 96-well microtiter plate, OD 600; type: cell-based; details: spore suspension in PDB liquid medium, 18° C., 5-6 days, OD at 600, read-out: control compared to the untreated check
Protocol: Potato dextrose (PDB) liquid medium (Difco) containing a PARANO (10^5 spores/ml) spore suspension was prepared. For the inhibition assay, each test compound was solved in dimethyl sulfoxide. 100 μl of the test compound in media-solution was added to a 96-well microtiter plate, consequently, the same volume (100 μl) of spore suspension was added to the well making the final test concentrations and the plate was incubated at 18° C. for 5-6 days. The growth inhibition was evaluated by measuring the OD at 600. Percent inhibition was calculated with the below formula: […]

Phakopsora pachyrhizi = Phakopsora pachyrhizi test on soybean, preventive, greenhouse; type: in vivo; details: preventive spray on soybean, inoculated one day after treatment, read-out: control (efficacy, disease severity) compared to the untreated check
Protocol: The respective compound was dissolved in 2% dimethyl sulfoxide/acetone and then mixed with water containing emulsifier to the calibrated spray volume of 30 mL. Each spray solution was poured into a spray bottle for further application.
To test the preventive activity of a compound, healthy young soybean plants, raised in the greenhouse, were sprayed with the active compound preparation at the stated application rate inside the spray cabinets using hollow cone nozzles. One day after treatment, the plants were inoculated with a conidial suspension containing 2×10^5 Phakopsora pachyrhizi inoculum. The inoculated plants were then kept in a greenhouse chamber at 22-24° C. temperature and 80-90% relative humidity for disease expression.

Botrytis cinerea = Botrytis cinerea test on tomato, preventive, greenhouse; type: in vivo; details: preventive spray on bean/chili plants (heading: tomato), inoculated one day after treatment, read-out: control (efficacy, disease severity) compared to the untreated check

| SMILES | inhibition of growth at 300 ppm (Pyricularia oryzae) | inhibition of growth at 300 ppm (Colletotrichum capsici) | inhibition of growth at 300 ppm (Parastagonospora nodorum) | pest or weed control at 500 ppm (Phakopsora pachyrhizi) | pest or weed control at 500 ppm (Botrytis cinerea) |
| --- | --- | --- | --- | --- | --- |
| Cn1ccc2cc(C(=O)NC(C)(C)Cc3ccc(F)c(F)c3)cnc21 [Compound 23, N-(1-(3,4-difluorophenyl)-2-methylpropan-2-yl)-1-methyl-1H-pyrrolo[2,3-b]pyridine-5-carboxamide] | ≥ 70% | ≥ 70% | ≥ 70% | ≥ 70% |  |
| Cn1ccc2cc(C(=O)NC(C)(C)Cc3ccc(Cl)c(Cl)c3)cnc21 [Compound 24, N-(1-(3,4-dichlorophenyl)-2-methylpropan-2-yl)-1-methyl-1H-pyrrolo[2,3-b]pyridine-5-carboxamide] | ≥ 70% |  |  | ≥ 70% |  |
| CC(Cc1ccccc1)(CC(F)(F)F)NC(=O)c1cnc2ccsc2c1 (stereo not shown) [Compound 25, N-(4,4,4-trifluoro-2-methyl-1-phenylbutan-2-yl)thieno[3,2-b] pyridine-6-carboxamide] | ≥ 70% | ≥ 70% | ≥ 70% | ≥ 70% |  |
| CC(C)CC(C)(Cc1ccccc1)NC(=O)c1cnc2ccsc2c1 (stereo not shown) [Compound 29, N-(2,4-dimethyl-1-phenylpentan-2-yl)thieno[3,2-b] pyridine-6-carboxamide] | ≥ 70% | ≥ 70% |  | ≥ 70% |  |
| Cc1nc2c(ccn2C)cc1C(=O)NC(C)(Cc1ccccc1)CC(C)C (stereo not shown) [Compound 34, N-(2,4-dimethyl-1-phenylpentan-2-yl)-1,6-dimethyl-1H-pyrrolo[2,3-b]pyridine-5-carboxamide] | ≥ 70% | ≥ 70% | ≥ 70% | ≥ 70% |  |
| Cc1nc2c(ccn2C)cc1C(=O)NC(C)(C)C(C)c1ccccc1F (stereo not shown) [Compound 35, N-(3-(2-fluorophenyl)-2-methylbutan-2-yl)-1,6-dimethyl-1H-pyrrolo[2,3-b]pyridine-5-carboxamide] |  |  |  | ≥ 70% | ≥ 70% |
| CC(C)CC(C)(Cc1ccccc1F)NC(=O)c1cnc2c(ccn2C)c1 (stereo not shown) [Compound 36, N-(1-(2-fluorophenyl)-2,4-dimethylpentan-2-yl)-1-methyl-1H-pyrrolo[2,3-b]pyridine-5-carboxamide] | ≥ 70% | ≥ 70% | ≥ 70% |  |  |
| CC(C)(Cc1ccccc1)NC(=O)c1cnc2c(c1)CCCC2 [Compound 45, N-(2-methyl-1-phenylpropan-2-yl)-5,6,7,8-tetrahydroquinoline-3-carboxamide] |  | ≥ 70% | ≥ 70% | ≥ 70% |  |
| CN(C(=O)c1cnc2c(c1)c(Cl)cn2C)C(C)(C)Cc1ccccc1 [Compound 56, 3-chloro-N,1-dimethyl-N-(2-methyl-1-phenylpropan-2-yl)-1H-pyrrolo[2,3-b] pyridine-5-carboxamide] | ≥ 70% |  | ≥ 70% | ≥ 70% |  |
| Cn1cc(Br)c2cc(C(=O)NC(C)(C)Cc3ccccc3F)cnc21 [Compound 58, 3-bromo-N-(1-(2-fluorophenyl)-2-methylpropan-2-yl)-1-methyl-1H-pyrrolo[2,3-b]pyridine-5-carboxamide] | ≥ 70% |  |  | ≥ 70% |  |
| Cn1ccc2cc(C(=O)NC(C)(C)Cc3ccc(Br)cc3)cnc21 [Compound 61, N-(1-(4-bromophenyl)-2-methylpropan-2-yl)-1-methyl-1H-pyrrolo[2,3-b]pyridine-5-carboxamide] |  |  |  |  | ≥ 70% |
| CC(c1ccccc1F)C(C)(C)NC(=O)c1cnc2c(c1)c(C1CC1)cn2C (stereo not shown) [Compound 65, 3-cyclopropyl-N-(3-(2-fluorophenyl)-2-methylbutan-2-yl)-1-methyl-1H-pyrrolo[2,3-b]pyridine-5-carboxamide] | ≥ 70% |  |  | ≥ 70% |  |
| Cn1ccc2cc(C(=O)NC(C)(C)Cc3ccc(F)cc3)cnc21 [Compound 74, N-(1-(4-fluorophenyl)-2-methylpropan-2-yl)-1-methyl-1H-pyrrolo[2,3-b]pyridine-5-carboxamide] |  |  |  |  | ≥ 70% |
| CSc1ccc(C(NC(=O)c2cnc3c(ccn3C)c2)C(C)C)cc1 (stereo not shown) [Compound 90] |  | ≥ 70% | ≥ 70% |  |  |
| O=C(NC1(C(F)(F)F)CC1)c1cnc2ccsc2c1 [Compound 108, N-(1-(trifluoromethyl)cyclopropyl)thieno [3,2-b]pyridine-6-carboxamide] | ≥ 70% |  | ≥ 70% |  |  |
| Cn1ccc2cc(C(=O)NC(C)(C)C(O)Cc3ccccc3)cnc21 (stereo not shown) [Compound 116, N-(3-hydroxy-2-methyl-4-phenylbutan-2-yl)-1-methyl-1H-pyrrolo[2,3-b]pyridine-5-carboxamide] |  | ≥ 70% |  |  |  |
| CCC(O)(CC)C(NC(=O)c1cnc2c(ccn2C)c1)c1ccccc1 (stereo not shown) [Compound 120, N-(2-ethyl-2-hydroxy-1-phenylbutyl)-1-methyl-1H-pyrrolo[2,3-b]pyridine-5-carboxamide] |  |  |  |  | ≥ 70% |
| Cc1ccc(F)cc1C(O)C(C)(C)NC(=O)c1cnc2ccsc2c1 (stereo not shown) [Compound 133, N-(1-(5-fluoro-2-methylphenyl)-1-hydroxy-2-methylpropan-2-yl)thieno[3,2-b] pyridine-6-carboxamide] | ≥ 70% |  |  | ≥ 70% |  |
| C[C@H](NC(=O)c1cnc2c(ccn2C)c1)C(O)(c1cc(Cl)cc(Cl)c1)c1cc(Cl)cc(Cl)c1 [Compound 141] | ≥ 70% |  |  | ≥ 70% |  |
| C=C(C)CC(C)(COc1ccccc1F)NC(=O)c1cnc2c(c1)c(Br)cn2C (stereo not shown) [Compound 176, 3-bromo-N-(1-(2-fluorophenoxy)-2,4-dimethylpent-4-en-2-yl)-1-methyl-1H-pyrrolo[2,3-b]pyridine-5-carboxamide] | ≥ 70% |  | ≥ 70% |  |  |
| C=C(C)CC(C)(Cc1ccc(F)cc1)NC(=O)c1cnc2c(ccn2C)c1 (stereo not shown) [Compound 181, N-(1-(4-fluorophenyl)-2,4-dimethylpent-4-en-2-yl)-1-methyl-1H-pyrrolo[2,3-b]pyridine-5-carboxamide] |  | ≥ 70% | ≥ 70% |  |  |
| CC(C)CC(C)(Cc1ccccc1)NC(=O)c1cc2c(nc1Cl)CCC2 (stereo not shown) [Compound 211, 2-chloro-N-(2,4-dimethyl-1-phenylpentan-2-yl)-6,7-dihydro-5H-cyclopenta[b]pyridine-3-carboxamide] |  | ≥ 70% | ≥ 70% |  |  |
| Cn1cc(Cl)c2cc(C(=O)NC(C)(C)COCc3cc(F)ccc3Cl)cnc21 [Compound 214, 3-chloro-N-(1-((2-chloro-5-fluorobenzyl)oxy)-2-methylpropan-2-yl)-1-methyl-1H-pyrrolo[2,3-b]pyridine-5-carboxamide] | ≥ 70% |  |  |  |  |
| Cn1cc(Cl)c2cc(C(=O)NC(C)(C)COc3ccnc(Cl)c3)cnc21 [Compound 220, 3-chloro-N-(1-((2-chloropyridin-4-yl)oxy)-2-methylpropan-2-yl)-1-methyl-1H-pyrrolo[2,3-b]pyridine-5-carboxamide] | ≥ 70% |  |  |  |  |
